Experiments:
[1] = Ichthyotoxicity in Carassius auratus; type: organism-based; details: in vivo
[2] = Activation of voltage-sensitive sodium channel in mouse neuro2a cells; type: cell-based; details: N2a

Structure (SMILES) | LC50 [1] [nM] | EC50 [2] [nM]
C=C1CC(=O)N[C@@H](C)C(=O)N(C)[C@@H](CCc2ccccc2)C(=O)NCC(=O)O[C@@H](/C(C)=C/C(C)=C/C(C)(C)C)[C@@H]1C [ANTILLATOXIN B] | 1000 | 1770
C=C1CC(=O)N[C@@H](C)C(=O)N(C)[C@@H](C(C)C)C(=O)NCC(=O)O[C@@H](/C(C)=C/C(C)=C/C(C)(C)C)[C@@H]1C [ANTILLATOXIN] | – | 180
